Laboratory results from patent publication US20070049564A1 (Wyeth, priority 2005, published 2007).
In brackets after ≈: the same amount, converted by molar mass. Like-named read-outs stand apart in the source and are kept apart here.

Legend:
[1] = tested on: E. coli GC 2236; experiment: MIC, broth microdilution; conditions: Escherichia coli
[2] = tested on: E. coli GC 2231; experiment: MIC, broth microdilution; conditions: Escherichia coli
[3] = tested on: E. coli GC 2232; experiment: MIC, broth microdilution; conditions: Escherichia coli
[4] = tested on: E. coli GC 2272; experiment: MIC, broth microdilution; conditions: Escherichia coli
[5] = tested on: P. aeruginosa GC 2214; experiment: MIC, broth microdilution; conditions: Pseudomonas aeruginosa
[6] = tested on: S. aureus GC 1131; experiment: MIC, broth microdilution; conditions: Staphylococcus aureus
[7] = tested on: S. aureus GC 4536; experiment: MIC, broth microdilution; conditions: Staphylococcus aureus
[8] = tested on: S. aureus GC 2216; experiment: MIC, broth microdilution; conditions: Staphylococcus aureus
[9] = tested on: S. epidermidis GC 4935; experiment: MIC, broth microdilution; conditions: Staphylococcus epidermidis
Experimental: (§1) Antimicrobial susceptibility testing. The in vitro activities of the antibiotics are determined by the broth microdilution method as recommended by the National Committee for Clinical Laboratory Standards (NCCLS) (1). Mueller-Hinton II broth (MHBII)(BBL Cockeysville, Md.) is the medium employed in the testing procedures. Microtiter plates containing serial dilutions of each antimicrobial agent are inoculated with each organism to yield the appropriate density (10^5 CFU/ml) in a 100 μl final volume. The plates are incubated for 18-22 hours at 35° C. in ambient air.
(§2) Representative compounds were first incubated in mouse serum for an hour prior to the in vitro testing against a panel of selected gram-positive and gram-negative bacteria strains. All compounds were also pre-incubated in water for an hour prior to testing as control. Representative compounds of Formula I were incubated in human serum prior to MIC determination.

[10] = tested on: E. faecalis GC 4555; experiment: MIC, broth microdilution; conditions: Enterococcus faecalis
Experimental: as §1, §2

[11] = tested on: E. faecalis GC 2265; experiment: MIC, broth microdilution; conditions: Enterococcus faecalis
[12] = tested on: E. faecalis GC 2267; experiment: MIC, broth microdilution; conditions: Enterococcus faecalis
[13] = tested on: E. faecalis GC 2242; experiment: MIC, broth microdilution; conditions: Enterococcus faecalis
[14] = tested on: E. faecium GC 2243; experiment: MIC, broth microdilution; conditions: Enterococcus faecium
[15] = tested on: S. pneumoniae* GC 4465; experiment: MIC, broth microdilution; conditions: Streptococcus pneumoniae
[16] = tested on: S. pneumoniae+ GC 4465; experiment: MIC, broth microdilution; conditions: Streptococcus pneumoniae
[17] = tested on: c. albicans GC 3066; experiment: MIC, broth microdilution
[18] = tested on: E. coli; experiment: Range of MIC for E. coli strains; conditions: Escherichia coli
[19] = tested on: Staph.; experiment: Range of MIC for Staph. strains, including MRSA; conditions: Staphylococcus aureus
[20] = tested on: Staph. aureus Smith; experiment: In vivo activity (oral, iv; ED50) against Staph. aureus Smith in mice
Experimental: Representative examples of compounds of Formula I were tested for the oral efficacy using S. aureus Smith in mice.

[21] = read-out: MINIMAL INHIBITORY CONCENTRATION MIC, pre-incubated in Human Serum
[22] = read-out: MINIMAL INHIBITORY CONCENTRATION MIC, pre-incubated in Mouse Serum
[23] = read-out: MINIMAL INHIBITORY CONCENTRATION MIC, pre-incubated in Water

CN(C)c1cc(NC(=O)CN(C(=O)OCOC(=O)c2ccc(C(C)(C)C)cc2)C(C)(C)C)c(O)c2c1C[C@H]1C[C@H]3[C@H](N(C)C)C(O)=C(C(N)=O)C(=O)[C@@]3(O)C(O)=C1C2=O [Example 43, ({[(2-{[(5aR,6aS,7S,10aS)-9-(aminocarbonyl)-4,7-bis(dimethylamino)-1,8,10a,11-tetrahydroxy-10,12-dioxo-5,5a,6,6a,7,10,10a,12-octahydrotetracen-2-yl]amino}-2-oxoethyl)(tert-butyl)amino]carbonyl}oxy)methyl 4-tert-butylbenzoate]
MIC ([1]; GC2236, read-out: MINIMAL INHIBITORY CONCENTRATION MIC, pre-incubated in Human Serum): > 64 µg/mL
MIC ([1]; GC2236, read-out: MINIMAL INHIBITORY CONCENTRATION MIC, pre-incubated in Mouse Serum): 0.5 µg/mL (≈ 0.61 µM)
MIC ([1]; GC2236, read-out: MINIMAL INHIBITORY CONCENTRATION MIC, pre-incubated in Water): > 64 µg/mL
MIC ([2]; GC2231, read-out: MINIMAL INHIBITORY CONCENTRATION MIC, pre-incubated in Human Serum): > 64 µg/mL
MIC ([2]; GC2231, read-out: MINIMAL INHIBITORY CONCENTRATION MIC, pre-incubated in Mouse Serum): 0.5 µg/mL (≈ 0.61 µM)
MIC ([2]; GC2231, read-out: MINIMAL INHIBITORY CONCENTRATION MIC, pre-incubated in Water): > 64 µg/mL
MIC ([3]; GC2232, read-out: MINIMAL INHIBITORY CONCENTRATION MIC, pre-incubated in Human Serum): > 64 µg/mL
MIC ([3]; GC2232, read-out: MINIMAL INHIBITORY CONCENTRATION MIC, pre-incubated in Mouse Serum): 0.5 µg/mL (≈ 0.61 µM)
MIC ([3]; GC2232, read-out: MINIMAL INHIBITORY CONCENTRATION MIC, pre-incubated in Water): > 64 µg/mL
MIC ([4]; GC2272, read-out: MINIMAL INHIBITORY CONCENTRATION MIC, pre-incubated in Human Serum): > 64 µg/mL
MIC ([4]; GC2272, read-out: MINIMAL INHIBITORY CONCENTRATION MIC, pre-incubated in Mouse Serum): 0.5 µg/mL (≈ 0.61 µM)
MIC ([4]; GC2272, read-out: MINIMAL INHIBITORY CONCENTRATION MIC, pre-incubated in Water): > 64 µg/mL
MIC ([5]; GC2214, read-out: MINIMAL INHIBITORY CONCENTRATION MIC, pre-incubated in Human Serum): > 64 µg/mL
MIC ([5]; GC2214, read-out: MINIMAL INHIBITORY CONCENTRATION MIC, pre-incubated in Mouse Serum): 16 µg/mL (≈ 19.5 µM)
MIC ([5]; GC2214, read-out: MINIMAL INHIBITORY CONCENTRATION MIC, pre-incubated in Water): > 64 µg/mL
MIC ([6]; GC1131, read-out: MINIMAL INHIBITORY CONCENTRATION MIC, pre-incubated in Human Serum): 16 µg/mL (≈ 19.5 µM)
MIC ([6]; GC1131, read-out: MINIMAL INHIBITORY CONCENTRATION MIC, pre-incubated in Mouse Serum): 1 µg/mL (≈ 1.22 µM)
MIC ([6]; GC1131, read-out: MINIMAL INHIBITORY CONCENTRATION MIC, pre-incubated in Water): 64 µg/mL (≈ 78.1 µM)
MIC ([7]; GC4536, read-out: MINIMAL INHIBITORY CONCENTRATION MIC, pre-incubated in Human Serum): 16 µg/mL (≈ 19.5 µM)
MIC ([7]; GC4536, read-out: MINIMAL INHIBITORY CONCENTRATION MIC, pre-incubated in Mouse Serum): 1 µg/mL (≈ 1.22 µM)
MIC ([7]; GC4536, read-out: MINIMAL INHIBITORY CONCENTRATION MIC, pre-incubated in Water): 32 µg/mL (≈ 39 µM)
MIC ([8]; GC2216, read-out: MINIMAL INHIBITORY CONCENTRATION MIC, pre-incubated in Human Serum): 32 µg/mL (≈ 39 µM)
MIC ([8]; GC2216, read-out: MINIMAL INHIBITORY CONCENTRATION MIC, pre-incubated in Mouse Serum): 0.5 µg/mL (≈ 0.61 µM)
MIC ([8]; GC2216, read-out: MINIMAL INHIBITORY CONCENTRATION MIC, pre-incubated in Water): 64 µg/mL (≈ 78.1 µM)
MIC ([9]; GC4935, read-out: MINIMAL INHIBITORY CONCENTRATION MIC, pre-incubated in Human Serum): 4 µg/mL (≈ 4.88 µM)
MIC ([9]; GC4935, read-out: MINIMAL INHIBITORY CONCENTRATION MIC, pre-incubated in Mouse Serum): 2 µg/mL (≈ 2.44 µM)
MIC ([9]; GC4935, read-out: MINIMAL INHIBITORY CONCENTRATION MIC, pre-incubated in Water): 32 µg/mL (≈ 39 µM)
MIC ([10]; GC4555, read-out: MINIMAL INHIBITORY CONCENTRATION MIC, pre-incubated in Human Serum): 8 µg/mL (≈ 9.76 µM)
MIC ([10]; GC4555, read-out: MINIMAL INHIBITORY CONCENTRATION MIC, pre-incubated in Mouse Serum): 0.5 µg/mL (≈ 0.61 µM)
MIC ([10]; GC4555, read-out: MINIMAL INHIBITORY CONCENTRATION MIC, pre-incubated in Water): 32 µg/mL (≈ 39 µM)
MIC ([11]; GC2265, read-out: MINIMAL INHIBITORY CONCENTRATION MIC, pre-incubated in Human Serum): 8 µg/mL (≈ 9.76 µM)
MIC ([11]; GC2265, read-out: MINIMAL INHIBITORY CONCENTRATION MIC, pre-incubated in Mouse Serum): 0.5 µg/mL (≈ 0.61 µM)
MIC ([11]; GC2265, read-out: MINIMAL INHIBITORY CONCENTRATION MIC, pre-incubated in Water): 32 µg/mL (≈ 39 µM)
MIC ([12]; GC2267, read-out: MINIMAL INHIBITORY CONCENTRATION MIC, pre-incubated in Human Serum): 4 µg/mL (≈ 4.88 µM)
MIC ([12]; GC2267, read-out: MINIMAL INHIBITORY CONCENTRATION MIC, pre-incubated in Mouse Serum): 0.5 µg/mL (≈ 0.61 µM)
MIC ([12]; GC2267, read-out: MINIMAL INHIBITORY CONCENTRATION MIC, pre-incubated in Water): 32 µg/mL (≈ 39 µM)
MIC ([13]; GC2242, read-out: MINIMAL INHIBITORY CONCENTRATION MIC, pre-incubated in Human Serum): 4 µg/mL (≈ 4.88 µM)
MIC ([13]; GC2242, read-out: MINIMAL INHIBITORY CONCENTRATION MIC, pre-incubated in Mouse Serum): 0.5 µg/mL (≈ 0.61 µM)
MIC ([13]; GC2242, read-out: MINIMAL INHIBITORY CONCENTRATION MIC, pre-incubated in Water): 16 µg/mL (≈ 19.5 µM)
MIC ([14]; GC2243, read-out: MINIMAL INHIBITORY CONCENTRATION MIC, pre-incubated in Human Serum): 0.25 µg/mL (≈ 0.305 µM)
MIC ([14]; GC2243, read-out: MINIMAL INHIBITORY CONCENTRATION MIC, pre-incubated in Mouse Serum): 0.12 µg/mL (≈ 0.146 µM)
MIC ([14]; GC2243, read-out: MINIMAL INHIBITORY CONCENTRATION MIC, pre-incubated in Water): 0.25 µg/mL (≈ 0.305 µM)
MIC [15, 21]: 1 µg/mL (≈ 1.22 µM)
MIC [15, 22]: < 0.06 µg/mL
MIC [15, 23]: 0.5 µg/mL (≈ 0.61 µM)
MIC [16, 21]: 2 µg/mL (≈ 2.44 µM)
MIC [16, 22]: 2 µg/mL (≈ 2.44 µM)
MIC [16, 23]: 2 µg/mL (≈ 2.44 µM)
MIC ([17]; Candida albicans, GC3066, read-out: MINIMAL INHIBITORY CONCENTRATION MIC): > 64 µg/mL
MINIMAL INHIBITORY CONCENTRATION MIC ([17]; pre-incubated in Human Serum): >64 UG/ML
MINIMAL INHIBITORY CONCENTRATION MIC ([17]; pre-incubated in Mouse Serum): >64 UG/ML
MIC ([18]; 20 h, read-out: Range of MIC, E. coli (Mouse Serum)): 0.25 to 2 µg/mL (≈ 0.305 to 2.44 µM)
MIC ([18]; read-out: Minimum inhibitory concentration (MIC), E. coli (Human Serum)): > 64 µg/mL
MIC ([18]; read-out: Minimum inhibitory concentration (MIC), E. coli (water)): > 64 µg/mL
MIC ([18]; read-out: Range of MIC, E. coli (Water)): > 64 µg/mL
MIC ([19]; MRSA, read-out: Range of MIC, Staph (Mouse Serum)): 0.5 to 2 µg/mL (≈ 0.61 to 2.44 µM)
MIC ([19]; read-out: Minimum inhibitory concentration (MIC), Staph (Human Serum)): 4 to 64 µg/mL (≈ 4.88 to 78.1 µM)
ED50 ([20]; Staphylococcus aureus, in Mus musculus, po, read-out: ED50 Staph Smith SOD): 12.8 mg/kg
ED50 ([20]; iv, read-out: ED50 Staph Smith SIV): 0.83 mg/kg
